# Laboratory results taken from US4992461A, “N-azabicyclo(3.3.0)octane amides of aromatic acids, compositions, and methods of use thereof” (G. D. Searle & Co., priority 1989, dated 1991).
# Where a name gives a salt, the structure may show the parent alone.
# What was measured:
# [1] = system: rats; test: Rat gastric emptying of a test meal; format: in vivo, Male Charles River Rats, Crl: COBS, CD (SD) BR Strain; details: 30 min before test meal, 60 min after meal
# Description: A test meal for measuring gastric emptying in rats was prepared. Ten grams of methylcellulose (2% solution=15 centipoises; Aldrich Chemical Company, Milwaukee, Wis.) was added to 200 ml of cold water and mixed at 20,000 rpm in a Waring blender to insure dispersion and hydration of the methylcellulose. In addition, two beef bouillon cubes (Wyler's, Columbus, Ohio) dissolved in 100 ml of warm water was added to the mixture, followed by 16 g of casein (Hammersten, Schwartz/Mann, Orangeburg, N.Y.), 8 g of powdered confectioners sugar and 8 g of cornstarch. The ingredients were mixed for two minutes at 20,000 rpm and the resultant test meal was refrigerated for 48 hours to allow trapped air to escape.
# Male Charles River Rats, Crl: COBS, CD (SD) BR Strain, 180-200 g body weight, were used in groups of six animals. The animals were food deprived for 24 hours prior to the experiment with access to water ad libitum. The compounds to be evaluated were prepared in a 0.5% aqueous methylcellulose solution. If insoluble, the mixture was homogenized for two minutes at 5500 rpm using a Try-R-Stir-R. The compounds were injected intraperitoneally at a volume of 5 ml/kg, 30 minutes before the test meal, (3.0 ml/rat i.g.). Control animals received only the vehicle. Sixty minutes after the test meal, the rats were sacrificed by cervical dislocation. The stomachs were removed intact and weighed. The stomachs were kept opened, gently rinsed with tap water, blotted dry with paper towelling, and the empty stomach weighed. The difference between the weight of the full and empty stomach is indicative of the amount of meal remaining in the stomach. The amount of meal remaining in the stomach was subtracted from the weight of 3 ml of the test meal to determine the amount of food emptied from the stomach during the test. Weight of the test meal was determined by weighing three samples (3 ml) at the beginning and three samples at the end of each experiment and calculating the mean. The mean and standard error of the amount of meal emptied were calculated.
# [2] = system: beagle dogs; test: Antiemetic activity against cisplatin in beagle dogs; format: in vivo; details: cisplatin 3 mg/kg i.v., 5 hours
# Description: Antiemetic activity of test compound against cisplatin was determined in beagle dogs. Dogs are pretreated I.V. with a test compound dissolved in DMSO thirty minutes before administration of cisplatin 3 mg/kg.i.v. with a second dose of compounds given i.v. two hours after cisplatin administration. Emetic episodes are counted for 5 hours following cisplatin administration.
# Per cent inhibition of emesis for each animal is determined by the following formula: [formula] A mean per cent inhibition of emesis is determined for at least 4 dogs.
# [3] = system: 5-HT3; test: Bezold-Jarisch Reflex test (5-HT induced bradycardia in pentobarbital anesthetized mice); format: in vivo; details: 5-HT 0.25 mg/kg i.v. induced bradycardia, 30 min
# Description: 5-HT3 antagonism can be determined for a compound by subjecting the compound to a Bezold-Jarisch Reflex test which is described and reported by Saxena, P.R., and Lawang, A.; Arch. Int.
# The test compound is administered i.p. (mg/kg) to a group of 3 mice. Thirty minutes later a 5-HT (0.25 mg/kg i.v.) induced bradycardia is recorded in pentobarbital anesthetized animals.
# [4] = system: gastric antrum; test: Antral motility in conscious fasted dogs; format: in vivo, Mongrel dogs; details: 60 min after injection relative to Phase III of MMC
# Description: This contractile activity is thought to enhance gastric emptying by more rapidly reducing food particle size for passage through the pylorus.
# Mongrel dogs of either sex were surgically implanted with strain gauge force transducers on the gastric antrum at 6 cm, 4 cm and 2 cm from the gastroduodenal junction. The dogs were allowed two weeks to recover and were trained to stand quietly in Pavlov slings.
# Dogs were fasted for 18 to 24 hours prior to each experiment to record a pattern of antral contractile activity characteristic of the fasted state called the Migrating Motor Complex (MMC). The period of the MMC cycle is approximately 90 to 120 minutes and consists of 45 to 60 minutes of motor quiescence (Phase I) 30 to 45 minutes of intermittent activity (Phase II) and 10 to 15 minutes of intense contractile activity (Phase III). A control MMC period is recorded prior to compound administration to obtain the length of the quiescent Phase I period. Compound is given intravenously at the end of Phase III of the control MMC cycle and a subsequent Phase I period is examined for the ability of the compound to produce contractions. A response index is calculated as the mean 10 minute motility index for 60 minutes following injection of test compound divided by the 10 minute motility index obtained for the previous Phase III period of the MMC. The response index represents an estimate of the fraction of maximal antral motor activity produced by the compound.
Structure (SMILES),% INCREASE IN GASTRIC EMPTYING ([1]; 1.0 mg/kg ip) [%],% INCREASE IN GASTRIC EMPTYING ([1]; 3.0 mg/kg ip) [%],% INCREASE IN GASTRIC EMPTYING ([1]; 10.0 mg/kg ip) [%],% INHIBITION OF CISPLATIN EMESIS ([2]; 0.3 mg/kg iv) [%],% INHIBITION OF CISPLATIN EMESIS ([2]; 3.0 mg/kg iv) [%],% INHIBITION ([3]; 5.0 mg/kg ip) [%],% INHIBITION ([3]; 10.0 mg/kg ip) [%],RESPONSE INDEX ([4]; 0.3 mg/kg iv),RESPONSE INDEX ([4]; 1.0 mg/kg iv),RESPONSE INDEX ([4]; 3.0 mg/kg iv),% INHIBITION ([3]; 2.5 mg/kg ip) [%],% INHIBITION OF CISPLATIN EMESIS ([2]; 1.0 mg/kg iv) [%],RESPONSE INDEX ([4]; 0.1 mg/kg iv),% INHIBITION OF CISPLATIN EMESIS ([2]; .005 mg/kg iv) [%],% INHIBITION OF CISPLATIN EMESIS ([2]; .05 mg/kg iv) [%]
"COc1cc(N)c(Cl)cc1C(=O)NC[C@@H]1CCN2CCC[C@@H]12 (relative stereo) [Example 5, cis-4-amino-5-chloro-N-[(hexahydro-1H-pyrrolizin-1-yl)methyl]-2-methoxybenzamide,dihydrochloride]",2.5,9.4,15.8,27.0,95.5,47,85,0.37,0.49,0.58,,,,,
"COc1cc(N)c(Cl)cc1C(=O)NC[C@H]1CCN2CCC[C@@H]12 (relative stereo) [Example 7, trans-4-amino-5-chloro-N-[(hexahydro-1H-pyrrolizin-1-yl)-methyl]-2-methoxybenzamide,dihydrochloride]",3.1,0.9,-6.9,,,61,86,,,0.40,55,,,,
"COc1cc(N)c(Cl)cc1C(=O)NC1CCN(CCCOc2ccc(F)cc2)CC1OC (centres unmarked) [Cisapride, cisapride]",9.8,15.4,25.0,-2.3,,54,78,0.54,0.41,,49,91.0,0.45,,
CN1C2CCC1CC(OC(=O)c1c[nH]c3ccccc13)C2 (centres unmarked) [ICS 205-930],,,,,,,,,,,,,,60.8,100.0
"CCN(CC)CCNC(=O)c1cc(Cl)c(N)cc1OC [Metoclopramide, metoclopramide]",2.6,11.2,34.1,19.5,99.9,,40,,0.23,0.65,,,,,
